Test results: article PMC11025887, “The SARM1 TIR domain produces glycocyclic ADPR molecules as minor products” (PLOS ONE, 2024)

Biological target: T1, Drosophila SARM1 TIR domain (Drosophila melanogaster, UniProt Q6IDD9)
T1 construct: gene Sarm; TIR domain only; N-terminal 6xHis tag kept; codon optimized; E. coli BL21(DE3)
T1 sequence (Q6IDD9 837-981 limits assumed): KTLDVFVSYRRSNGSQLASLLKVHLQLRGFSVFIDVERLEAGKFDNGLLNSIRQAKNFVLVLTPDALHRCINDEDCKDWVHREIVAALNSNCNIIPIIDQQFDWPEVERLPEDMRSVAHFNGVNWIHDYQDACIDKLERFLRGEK
Assay: LC-MS/MS of NAD+ and products
Format: biochemical
Conditions: […] protein; […] NAD+; […] HEPES-KOH pH […]; […] NaCl; […] TCEP; […] C; […] h; main product cADPR

NC(=O)c1ccc[n+]([C@@H]2O[C@H](COP(=O)(O)OP(=O)(O)OC[C@H]3O[C@@H](n4cnc5c(N)ncnc54)[C@H](O)[C@@H]3O)[C@@H](O)[C@H]2O)c1 [NAD^+]
LC-MS/MS of NAD+ and products: SARM1 TIR domains consumed NAD^+ efficiently
